Results taken from paper PMC9278491, “Filarial nematode phenotypic screening cascade to identify compounds with anti-parasitic activity for drug discovery optimization” (International Journal for Parasitology: Drugs and Drug …, 2022).
Several values for one entry are separate records, joined by “and”; a condition that tells them apart may be missing. Identical values can stand only once. Like-named read-outs stand apart in the source and are kept apart here.

Key:
adult L. sigmodontis = experiment: L. sigmodontis murine model of filariasis (adult worm burden); assay type: in vivo, Litomosoides sigmodontis in female BALB/c mice; conditions: BALB/c mice, 2 mg/kg, QD SC, 5 days, mean vs mean of vehicle controls
[1] = system: O. gutturosa adult male worms; experiment: O. gutturosa adult worm 5-day motility assay; parameters: species or system Onchocerca gutturosa; conditions: 5 days in vitro culture, top concentration 12.5 μM, read-out: O. gutturosa EC50 (motility inhibition, adult worms)
From the text: O. gutturosa adult male worms were obtained postmortem from freshly slaughtered cattle. The worms were dissected from the nuchal ligament connective tissues of naturally infected cattle in Gambia, West Africa; The West Africa Livestock Innovation Centre (WALIC), Banjul, purchased material from local butchers for use in this study.
Using a dissecting microscope and micropipette, microfilariae were then transferred in groups of 5 into each well of a 96-well plate (Fisher Scientific, UK). The adult O. gutturosa worms were transferred individually to each well of a sterile 24-well (2 mL) plate (Fisher Scientific, UK) and maintained for at least 24 h in culture before use. […]
(§1) Only normally active worms were used for the test and all assays were conducted at 37 °C and 5% CO2. […] The activity levels of O. gutturosa adult worms were assessed by the measurement of mean motility scores on a scale of 0 (immotile) to 10 (maximum) every 24 h, terminating at 120 h, using an Olympus inverted microscope. For O. lienalis microfilariae, the motility of the microfilariae was classified using an Olympus inverted microscope as normal (continuous rapid sinuous movement, scored as 3), marginally impaired (slower than normal movement, scored as 2), severely impaired (scored as 1), or immotile (scored as 0) after 120 h of drug exposure. […]

O. gutturosa adult worms = experiment: O. gutturosa adult worm viability, MTT/formazan colorimetry; parameters: species or system Onchocerca gutturosa; conditions: day 5, vs untreated control
Description: The EC50 values were calculated using a sigmoidal interpolation in Graph Pad Prisme 7 data analysis software. The test drug is considered active when a motility reduction of ≥50% is observed by comparison to the untreated controls. In addition, biochemical evaluation of O. gutturosa adult worm viability was assessed using MTT/formazan colorimetry. The MTT assay was carried out after the last motility reading (120 h). Single intact worms were placed in each well of a 48-well plate (Fisher Scientific, UK) containing 0.5 mL of 0.5 mg/mL MTT (Sigma, UK) in PBS solution, and then incubated for 30 min at 37 °C. The worms were removed, blotted carefully, and individually transferred to separate wells of a 96-well microtiter plate, each containing 200 μL of DMSO to solubilize the formazan. After 1 h the plate was gently agitated to disperse the color evenly and the absorbance value (optical density, OD) of the resulting formazan solution was determined at 490 nm using an absorbance microplate reader (Biotek ELx800, Fisher Scientific, UK). The results are expressed as the mean OD per drug concentration. Inhibition of formazan formation is correlated with worm damage or death.
Supplementary Figure S4. Ex vivo MTT worm viability screening against adult O. gutturosa. O. gutturosa adult worm viability was assessed using MTT/formazan colorimetry on day 5. […]

[2] = system: O. lienalis microfilariae; experiment: O. lienalis microfilariae 5-day motility assay; parameters: species or system Onchocerca lienalis; conditions: 5 days in vitro culture, top concentration 12.5 μM; read-out: O. lienalis EC50 (motility inhibition, microfilariae)
Description: A single large batch of O. lienalis microfilariae was obtained post mortem from the peri-umbilical skin area of freshly slaughtered, naturally infected cattle in the UK following the procedure described by ([Tagboto and Townson, 1991]) and the references therein. The extracted microfilariae were cryopreserved using a 2-step incubation technique with ethanediol as a cryoprotectant ([Ham et al., 1981]), stored in liquid nitrogen and thawed when required for immediate use.
Using a dissecting microscope and micropipette, microfilariae were then transferred in groups of 5 into each well of a 96-well plate (Fisher Scientific, UK). […]
as §1
The EC50 values were calculated using a sigmoidal interpolation in Graph Pad Prisme 7 data analysis software. […]

| Structure (SMILES) | Reduction Adult Worms (adult L. sigmodontis) | EC50 ([1]; listed as Imiticide) [nM] | EC50 [1] [nM] | O. gutturosa MTT % reduction at 12.5 μM (O. gutturosa adult worms) [%] | EC50 [2] [nM] |
| --- | --- | --- | --- | --- | --- |
| COC(=O)Nc1nc2cc(C(=O)c3ccc(F)cc3)ccc2[nH]1 [Flubendazole, flubendazole] | 98.4% (P = 0.024) and 100% (P = 0.007) | – | – | – | – |
| Cl.Cl.NCCS[As](SCCN)c1ccc(Nc2nc(N)nc(N)n2)cc1 [Immiticide, melarsomine dihydrochloride] | – | 600 | 590 | 96.3 | 800 |
